Values quoted from earlier work, collected in patent EP0534246A2, “Benzylamine derivatives and medicines with antiarrhythmic activity containing them” (BASF Aktiengesellschaft, priority 1991, dated 1993).

Target: K^+ATP-Kanal (Homo sapiens, UniProt Q14654)
Conditions: J. Mol. Cell. Cardiol. 21, Suppl. 2, S. 9, 1989

Chain of K^+ATP-Kanal (Q14654 whole entry): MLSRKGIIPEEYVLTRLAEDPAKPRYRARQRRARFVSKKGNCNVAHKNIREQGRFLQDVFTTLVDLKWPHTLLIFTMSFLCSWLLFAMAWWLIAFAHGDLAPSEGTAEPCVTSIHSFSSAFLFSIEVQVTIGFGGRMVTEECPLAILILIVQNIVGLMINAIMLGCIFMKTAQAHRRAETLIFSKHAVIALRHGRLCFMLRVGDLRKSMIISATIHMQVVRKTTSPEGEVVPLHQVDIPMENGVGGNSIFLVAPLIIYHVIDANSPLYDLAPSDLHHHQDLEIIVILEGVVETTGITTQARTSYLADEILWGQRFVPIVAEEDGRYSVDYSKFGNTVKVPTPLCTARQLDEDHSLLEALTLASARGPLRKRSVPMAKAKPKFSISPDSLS
Chain of K^+ATP-Kanal (O60706 whole entry partner): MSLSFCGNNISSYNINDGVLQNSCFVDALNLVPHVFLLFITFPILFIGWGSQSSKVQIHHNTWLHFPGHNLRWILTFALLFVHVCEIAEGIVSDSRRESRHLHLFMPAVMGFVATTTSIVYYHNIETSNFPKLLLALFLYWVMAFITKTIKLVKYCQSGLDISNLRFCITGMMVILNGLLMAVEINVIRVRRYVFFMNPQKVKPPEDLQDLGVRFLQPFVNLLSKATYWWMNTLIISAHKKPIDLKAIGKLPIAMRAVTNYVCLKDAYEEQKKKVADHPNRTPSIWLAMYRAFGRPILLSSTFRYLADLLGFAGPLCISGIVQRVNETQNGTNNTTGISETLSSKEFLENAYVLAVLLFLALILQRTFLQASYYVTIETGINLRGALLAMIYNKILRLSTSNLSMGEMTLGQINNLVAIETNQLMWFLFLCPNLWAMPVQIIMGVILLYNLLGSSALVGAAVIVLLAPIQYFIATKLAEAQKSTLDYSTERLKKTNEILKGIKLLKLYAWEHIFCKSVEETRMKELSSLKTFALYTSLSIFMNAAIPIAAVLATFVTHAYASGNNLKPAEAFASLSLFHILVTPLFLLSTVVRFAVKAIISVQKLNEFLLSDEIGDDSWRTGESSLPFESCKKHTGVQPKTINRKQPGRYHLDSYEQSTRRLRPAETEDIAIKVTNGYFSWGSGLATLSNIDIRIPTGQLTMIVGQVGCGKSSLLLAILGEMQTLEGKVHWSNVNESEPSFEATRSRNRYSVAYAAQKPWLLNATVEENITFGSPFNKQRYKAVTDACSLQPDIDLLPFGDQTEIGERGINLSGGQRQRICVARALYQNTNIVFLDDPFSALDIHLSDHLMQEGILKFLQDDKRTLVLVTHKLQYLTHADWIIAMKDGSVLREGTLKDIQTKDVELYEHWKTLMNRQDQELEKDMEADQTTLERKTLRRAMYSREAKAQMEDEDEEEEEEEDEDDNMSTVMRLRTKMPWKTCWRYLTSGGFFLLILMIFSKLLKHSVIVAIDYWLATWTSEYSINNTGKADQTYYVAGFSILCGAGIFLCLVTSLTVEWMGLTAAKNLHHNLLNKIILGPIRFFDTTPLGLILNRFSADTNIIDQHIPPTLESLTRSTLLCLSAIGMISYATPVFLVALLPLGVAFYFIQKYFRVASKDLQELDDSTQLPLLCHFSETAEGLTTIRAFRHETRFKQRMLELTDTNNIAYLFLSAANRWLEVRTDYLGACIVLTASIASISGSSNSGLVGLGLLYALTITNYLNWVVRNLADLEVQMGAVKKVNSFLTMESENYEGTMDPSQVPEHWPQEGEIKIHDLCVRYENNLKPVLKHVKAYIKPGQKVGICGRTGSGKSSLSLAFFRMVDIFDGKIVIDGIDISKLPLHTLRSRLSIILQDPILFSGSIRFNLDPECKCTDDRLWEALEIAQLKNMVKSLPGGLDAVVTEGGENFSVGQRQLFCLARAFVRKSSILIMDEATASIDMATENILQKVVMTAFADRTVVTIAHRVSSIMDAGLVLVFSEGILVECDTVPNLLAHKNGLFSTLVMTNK

Konzentration, bei der Wirkung gezeigt wird (Blocker des ATP-abhängigen K+-Kanals): ca. 100 um
Compound: CCCCCC(O)CCCC(=O)O (stereo not shown) [5-Hydroxydekanoat]
